Source: patent publication US11458138B2 (Novartis AG, priority 2017, dated 2022)

Legend:
limbal stem cells (LSCs) [1] = assay: LSC population expansion, p63-alpha immunolabelling and cell count; assay type: cell-based, human; conditions: for LSC colony formation and p63alpha expression: up to 6 days in culture, vs growth medium and DMSO
Excerpt: FIG. 2A: In the presence of growth medium and DMSO, only a few isolated cells attach to the culture dish and survive up to 6 days. Most cells expressed the human nuclear marker, but few expressed p63alpha. FIGS. 2B and 2C: In contrast, in the presence of LATS inhibitors: compound example no. 49 and example no. […] FIG. 2D: Passaging cells and culturing them in the presence of LATS inhibitor compound example no.
(§1) If it is desired to measure the cell number or expansion of the cell population, this may be done for example by taking an aliquot and performing immunocytochemistry (e.g. to count nuclei stained with Sytox Orange) or by live cell imaging under brightfield microscope to count the number of cells or by performing real-time quantitative live-cell analysis of cell confluence at various time points during the cell population expansion phase of the method according to the invention.
The Sytox Orange assay may be performed according to standard protocols known in the art. In brief, after cells have attached to the cell culture dish (typically 24 h after cell plating), the cells are fixed in paraformaldehyde. The cells are then permeabilized (e.g. using a solution of 0.3% Triton X-100) and they are then labeled in a solution of Sytox Orange (e.g. using 0.5 micromolar of Sytox Orange in PBS). The number of nuclei stained with Sytox Orange per surface area are then counted under a Zeiss epifluorescence microscope.
(2) The cell preparation comprises more than 6% p63alpha positive cells. Preferably the cell preparation comprises more than 10%, 20%, 30%, 40%, 50%, 60%, 70%, 80% or 90% p63alpha positive cells. In a preferred embodiment the cell preparation comprises more than 95% p63alpha positive cells. The percentage of p63alpha cells may be measured by immunohistochemistry or FACS.

limbal stem cells (LSCs) [2] = assay: Immunolabelling of LSC markers DeltaN-p63 alpha/beta/gamma, ABCG2, C/EBP delta; assay type: cell-based, human; conditions: vs cells cultured in DMSO
Excerpt: In contrast, cells cultured in the presence of LATS inhibitors express markers such as DeltaN-p63 alpha/beta/gamma, ABCG2 and C/EBP delta, normally expressed by LSCs.
(3) The cells express one or more of ABCB5, ABCG2, and C/EBPδ. The expression of ABCB5, ABCG2, and C/EBPδ may be estimated by standard techniques known in the art, such as for example immunohistochemistry and quantitative RT-PCR.

[3] = system: YAP translocation in Corneal Endothelial Cells (CECs); assay: YAP nuclear translocation in Corneal Endothelial Cells (CECs); assay type: cell-based, human
[4] = system: YAP phosphorylation in CECs; assay: YAP dephosphorylation in CECs by Western blot; assay type: cell-based, human; conditions: within one hour of treatment, normalized to beta-actin and total YAP
Excerpt: As shown in FIG. 15a by Western blot; FIG. 15b: graph showing phosphorylated YAP levels normalized to beta-actin; and FIG. 15c: graph showing phosphorylated YAP levels normalized to total YAP.

[5] = system: Corneal Endothelial Cells (CECs); assay: CEC proliferation, Incucyte confluence by real-time live-cell analysis; assay type: cell-based, human; conditions: vs vehicle DMSO
Excerpt: FIG. 16: CECs grown in presence or absence of LATS inhibitors. An Incucyte system (Essen Biosciences) was used to measure CEC confluence by real-time quantitative live-cell analysis over a time course. Compound ex. 49 (black squares) and ex.
as §1

YAP in human LSCs = assay: Intracellular YAP distribution in limbal epithelial cells (LSCs); assay type: cell-based; conditions: 10 micromolar, 24 hours, vs DMSO
Description: Cells obtained as described in Example B1 were plated in glass-bottom black wall 24-well dishes in limbal epithelium cell culture medium (DMEM F12 supplemented with 10% human serum and 1.3 mM calcium chloride) supplemented with LATS inhibitor compound example no. […] Cells were cultured under these conditions for 24 hours at 37° C. in 5% CO2.
(§2) To measure the effect of the LATS inhibitors on the downstream target YAP, intracellular YAP distribution was analyzed by immunohistochemistry. Cell cultures were fixed with 4% PFA for 20 minutes, permeabilized and blocked in a blocking solution of 0.3% Triton X-100 (Sigma-Aldrich) and 3% donkey serum in PBS for 30 minutes. Cells were then labeled with primary antibody in the blocking solution for 12 hours at 4° C. Primary antibody used was anti-YAP from Santa Cruz Biotechnology. Samples were washed in PBS three times and donkey-raised secondary antibody Alexa Fluor 488 (Molecular Probes) at 1:500 dilution were applied for 30 minutes at room temperature. […] Fluorescence was observed using a Zeiss LSM 880 confocal microscope.

[6] = system: phospho-YAP (ser127) in human LSCs; assay: YAP phosphorylation by western blot in LSCs; assay type: cell-based; conditions: 10 micromolar, 1 hour
Description: Cells obtained as described in Example B1 were detached from the culture dish with Accutase for 10 minutes at 37° C., cell suspensions were rinsed by centrifugation and plated in DMEM F12 supplemented with 10% human serum and 1.3 mM calcium chloride in 6-well plates (Corning) and cultured without LATS inhibitor compounds for 2-4 days.
The medium was then replaced by fresh limbal epithelium cell culture medium (DMEM F12 supplemented with 10% human serum and 1.3 mM calcium chloride) supplemented with LATS inhibitor compound example no. […] Cells were cultured under these conditions for 1 hour at 37° C. in 5% CO2.
To measure the effect of the LATS inhibitors on the downstream target YAP, the YAP phosphorylation levels were measured by western blot as follows. The cell pellets were obtained by trypsin dissociation and centrifugation and washed with PBS. The pellets were lysed with 30 microlitres of RIPA lysis buffer containing protease inhibitor cocktail (Life Technologies) for 30 minutes, with vortexing every 10 minutes. The cell debris were then pelleted at 4° C. for 15 minutes at 14 k rpm and the protein lysate was collected. Protein concentration was quantified using a micro BCA kit (Pierce). Fifteen micrograms of total protein was loaded in each well of 4-20% TGX gels (BioRad) and Western blotting was performed according to the manufacturer's instructions. […]

YAP in human CECs = assay: Intracellular YAP distribution in corneal endothelial cells (CECs); assay type: cell-based; conditions: 10 micromolar, 24 hours
Description: Cells obtained as described in Example C1 were plated in glass-bottom black wall 24-well dishes in corneal endothelial cell culture medium (human endothelial SF (serum free) medium (Invitrogen) with human serum) supplemented with LATS inhibitor compound example no. 133 or compound example no. […] Cells were cultured under these conditions for 24 hours at 37° C. in 5% CO2.
as §2

[7] = system: human corneal endothelial cells (CECs); assay: Human corneal endothelial cell population expansion, cell confluence (Incucyte); assay type: cell-based; conditions: 10 micromolar, 10 days
Description: Cells obtained as described in Example C1 were detached from the culture dish with 100 microlitres of Accutase (ThermoFisher) for 10 minutes at 37° C., cell suspensions were rinsed by centrifugation and plated in corneal endothelial cell culture medium (human endothelial SF medium (Invitrogen) with human serum) in 6-well plates (Corning) supplemented with LATS inhibitor compound example no. […] Cells were cultured at 37° C. in 5% CO2.
To measure cell proliferation, an Incucyte machine was used following the manufacturer's instructions (Essen Biosciences) to perform real-time quantitative live-cell analysis of cell confluence every 3 hours for 10 days.

Row | SMILES | LSC colony formation and p63alpha expression (limbal stem cells (LSCs) [1]) | expression of LSC markers DeltaN-p63 alpha/beta/gamma, ABCG2 and C/EBP delta (limbal stem cells (LSCs) [2]) | translocation of YAP into the nucleus in CECs [3] | YAP dephosphorylation in CECs [4] | CEC proliferation (confluence over time) [5] | YAP immunostaining in the nucleus of LSCs (YAP in human LSCs) | YAP phosphorylation levels in human LSCs (western blot) [6] | YAP immunostaining in CECs (YAP in human CECs) | Proliferation of human CECs (percentage confluence over time) [7] | LSC population expansion after passaging (limbal stem cells (LSCs) [1]; passaged cells cultured for two weeks)
1 | Cc1n[nH]cc1-c1nc(NC2(C)CC2)c2ccncc2n1 [Example 133, 2-(3-methyl-1H-pyrazol-4-yl)-N-(1-methylcyclopropyl)pyrido[3,4-d]pyrimidin-4-amine] | formed colonies and expressed p63alpha | express typical markers of LSCs | induce translocation of YAP into the nucleus | induce YAP dephosphorylation | induced strong CEC proliferation | stronger in the nucleus | reduction in YAP phosphorylation levels | stronger | could activate proliferation in these cells | 
2 | CC(C)(O)CC(C)(C)Nc1nc(-c2ccncc2)nc2cnccc12 [Example 49, 2,4-dimethyl-4-{[2-(pyridin-4-yl)pyrido[3,4-d]pyrimidin-4-yl]amino}pentan-2-ol] | formed colonies and expressed p63alpha | express typical markers of LSCs | induce translocation of YAP into the nucleus | induce YAP dephosphorylation | induced strong CEC proliferation | stronger in the nucleus | reduction in YAP phosphorylation levels | stronger | could activate proliferation in these cells | enabled cell population expansion and the formation of confluent cultures expressing p63alpha
